In US8530493B2, “Indolopyridines as Eg5 kinesin modulators” (4SC AG, priority 2006, dated 2013):

Legend:
[1] = system: RKO p27 or p21 induced (arrested) colon adenocarcinoma cells; assay: Alamar Blue cell viability assay, RKO p27 or p21 induced (arrested); type: cell-based; conditions: Homo sapiens, RKOp27, Table B2, cells arrested by Ponasterone A, 72 hours, read-out: −log EC50 RKO p27 or p21 induced (arrested) (converted)
Procedure: (§1) To determine the cell cycle specific mode of action, subclones of RKO colon adenocarcinoma cells (RKOp21 or RKOp27 as described by Schmidt et al. in Oncogene 19, 2423-2429; 2000) are seeded into 96 well flat bottom plates at a density of 16000 cells per well in a volume of 50 μl per well in DMEM growth medium with 10% FCS containing 10 μM Ponasterone A. 24 hours after seeding the 50 μl each of the compound dilutions in DMEM medium are added into each well of the 96-well plate. Each compound dilution is tested as triplicates. Wells containing untreated control cells are filled with 50 μl DMEM medium containing 1% DMSO. The cells are then incubated with the substances for 72 hours at 37° C. in a humidified atmosphere containing 5% carbon dioxide. To determine the viability of the cells, 10 μl of an Alamar Blue solution (Biosource) are added and the fluorescence is measured at an extinction of 544 nm and an emission of 590 nm. For the calculation of the cell viability the emission value from untreated cells is set as 100% viability and the emission rates of treated cells are set in relation to the values of untreated cells. Viabilities are expressed as % values. The Graphpad Prism program (GraphPad Software, Inc) is used for the calculation of EC50 values out of the obtained dose-response curves. Viability is compared of proliferating cells grown in the absence of the inducer Ponasterone A, versus viability of cells arrested by the expression of ectopic p27Kip1 induced by Ponasterone A.
(§2) Representative values for anti-proliferation/cytotoxicity [measured as −log EC50 (mol/l)] determined in the aforementioned assays follow from the following tables B1, B2 and B3, in which the numbers of the compounds correspond to the numbers of the examples.

[2] = system: RKO p27 or p21 uninduced (proliferating) colon adenocarcinoma cells; assay: Alamar Blue cell viability assay, RKO p27 or p21 uninduced (proliferating); type: cell-based; conditions: Homo sapiens, RKOp27, 72 h, Table B2, anti-proliferative/cytotoxic activity, read-out: −log EC50 RKO p27 or p21 uninduced (proliferating) (converted)
Procedure: The anti-proliferative/cytotoxic activity of the compounds described herein can be tested on subclones of RKO human colon adenocarcinoma cells (Schmidt et al., Oncogene 19, 2423-2429; 2000) using the Alamar Blue cell viability assay (described in O'Brien et al. Eur J Biochem 267, 5421-5426, 2000). The compounds are dissolved as 10 mM solutions in DMSO and subsequently diluted in semi-logarithmic steps. DMSO dilutions are further diluted 1:100 into Dulbecco's modified Eagle's medium (DMEM) containing 10% fetal calf serum to a final concentration twice as much as the final concentration in the test. RKO subclones are seeded into 96 well flat bottom plates at a density of 4000 cells per well in a volume of 50 μl per well. 24 hours after seeding the 50 μl each of the compound dilutions in DMEM medium are added into each well of the 96 well plate. Each compound dilution is tested as triplicates. Wells containing untreated control cells are filled with 50 μl DMEM medium containing 1% DMSO. The cells are then incubated with the substances for 72 hours at 37° C. in a humidified atmosphere containing 5% carbon dioxide. To determine the viability of the cells, 10 μl of an Alamar Blue solution (Biosource) are added and the fluorescence is measured at an extinction of 544 nm and an emission of 590 nm. For the calculation of the cell viability the emission value from untreated cells is set as 100% viability and the emission rates of treated cells are set in relation to the values of untreated cells. Viabilities are expressed as % values. The Graphpad Prism program is used for the calculation of EC50 values for anti-proliferative/cytotoxic activity out of the obtained dose-response curves.
as §1, §2

SMILES | EC50 [1] | EC50 [2]
COc1ccc2[nH]c3c(c2c1)C[C@@]1(C)C(=O)N(CCCN2CC=CC2)C(=O)N1[C@@H]3c1cccc(O)c1 (racemic) [Example 149, (3aSR,10RS)-2-[3-(2,5-Dihydro-pyrrol-1-yl)-propyl]-10-(3-hydroxy-phenyl)-6-methoxy-3a-methyl-3a,4,9,10-tetrahydro-2,9,10a-triaza-cyclopenta[b]fluorene-1,3-dione] | ≥ 0.316 µM | ≤ 0.0398 µM
COc1ccc2[nH]c3c(c2c1)C[C@@]1(C)C(=O)N(CCN(C)C(C)C)C(=O)N1[C@@H]3c1cccc(O)c1 (racemic) [Example 70, (3aSR,10RS)-10-(3-Hydroxy-phenyl)-2-[2-(isopropyl-methyl-amino)-ethyl]-6-methoxy-3a-methyl-3a,4,9,10-tetrahydro-2,9,10a-triaza-cyclopenta[b]fluorene-1,3-dione] | ≥ 3.16 µM | ≤ 0.0398 µM
COc1ccc2[nH]c3c(c2c1)C[C@@]1(C)C(=O)N(CCNCC(F)F)C(=O)N1[C@@H]3c1cccc(O)c1 (racemic) [Example 73, (3aSR,10RS)-2-[2-(2,2-Difluoro-ethylamino)-ethyl]-10-(3-hydroxy-phenyl)-6-methoxy-3a-methyl-3a,4,9,10-tetrahydro-2,9,10a-triaza-cyclopenta[b]fluorene-1,3-dione] | ≥ 3.16 µM | 0.0398 to 0.251 µM
COc1ccc2[nH]c3c(c2c1)C[C@@]1(C)C(=O)N(CCCN2CCC(C)CC2)C(=O)N1[C@@H]3c1cccc(O)c1 (racemic) [Example 112, (3aSR,10RS)-10-(3-Hydroxy-phenyl)-6-methoxy-3a-methyl-2-[3-(4-methyl-piperidin-1-yl)-propyl]-3a,4,9,10-tetrahydro-2,9,10a-triaza-cyclopenta[b]fluorene-1,3-dione] | ≥ 0.316 µM | ≤ 0.0398 µM
COc1ccc2[nH]c3c(c2c1)C[C@@]1(C)C(=O)N(CCCCl)C(=O)N1[C@@H]3c1cccc(O)c1 (racemic) [Example 55, (3aSR,10RS)-2-(3-Chloro-propyl)-10-(3-hydroxy-phenyl)-6-methoxy-3a-methyl-3a,4,9,10-tetrahydro-2,9,10a-triaza-cyclopenta[b]fluorene-1,3-dione] | ≥ 0.316 µM | 0.0398 to 0.251 µM
COc1ccc2[nH]c3c(c2c1)C[C@@]1(C)C(=O)N(CCCNCC(F)F)C(=O)N1[C@@H]3c1cccc(O)c1 (racemic) [Example 142, (3aSR,10RS)-2-[3-(2,2-Difluoro-ethylamino)-propyl]-10-(3-hydroxy-phenyl)-6-methoxy-3a-methyl-3a,4,9,10-tetrahydro-2,9,10a-triaza-cyclopenta[b]fluorene-1,3-dione] | ≥ 0.316 µM | 0.0398 to 0.251 µM
COc1ccc2[nH]c3c(c2c1)C[C@@]1(C)C(=O)N(CCN2CC=CCC2)C(=O)N1[C@@H]3c1cccc(O)c1 (racemic) [Example 68, (3aSR,10RS)-2-[2-(3,6-Dihydro-2H-pyridin-1-yl)-ethyl]-10-(3-hydroxy-phenyl)-6-methoxy-3a-methyl-3a,4,9,10-tetrahydro-2,9,10a-triaza-cyclopenta[b]fluorene-1,3-dione] | ≥ 3.16 µM | ≤ 0.0398 µM
C[C@@]12Cc3c([nH]c4ccc(Cl)cc34)[C@@H](c3cccc(O)c3)N1C(=O)N(CCCCl)C2=O (racemic) [Example 57, (3aSR,10RS)-6-Chloro-2-(3-chloro-propyl)-10-(3-hydroxy-phenyl)-3a-methyl-3a,4,9,10-tetrahydro-2,9,10a-triaza-cyclopenta[b]fluorene-1,3-dione] | ≥ 0.316 µM | 0.0398 to 0.251 µM
COc1ccc2[nH]c3c(c2c1)C[C@@]1(C)C(=O)N(CCCN2CCCC2)C(=O)N1[C@@H]3c1cccc(O)c1 (racemic) [Example 96, (3aSR,10RS)-10-(3-Hydroxy-phenyl)-6-methoxy-3a-methyl-2-(3-pyrrolidin-1-yl-propyl)-3a,4,9,10-tetrahydro-2,9,10a-triaza-cyclopenta[b]fluorene-1,3-dione] | ≥ 3.16 µM | ≤ 0.0398 µM
COc1ccc2[nH]c3c(c2c1)C[C@@]1(C)C(=O)N(CCCN2CCC2)C(=O)N1[C@@H]3c1cccc(O)c1 (racemic) [Example 87, (3aSR,10RS)-2-(3-Azetidin-1-yl-propyl)-10-(3-hydroxy-phenyl)-6-methoxy-3a-methyl-3a,4,9,10-tetrahydro-2,9,10a-triaza-cyclopenta[b]fluorene-1,3-dione] | ≥ 3.16 µM | ≤ 0.0398 µM
CCN(C)CCCN1C(=O)N2[C@H](c3cccc(O)c3)c3[nH]c4ccc(Cl)cc4c3C[C@@]2(C)C1=O (racemic) [Example 140, (3aSR,10RS)-6-Chloro-2-[3-(ethyl-methyl-amino)-propyl]-10-(3-hydroxy-phenyl)-3a-methyl-3a,4,9,10-tetrahydro-2,9,10a-triaza-cyclopenta[b]fluorene-1,3-dione] | ≥ 3.16 µM | ≤ 0.0398 µM
COc1ccc2[nH]c3c(c2c1)C[C@@]1(C)C(=O)N(CCNC(C)(C)C)C(=O)N1[C@@H]3c1cccc(O)c1 (racemic) [Example 72, (3aSR,10RS)-2-(2-tert-Butylamino-ethyl)-10-(3-hydroxy-phenyl)-6-methoxy-3a-methyl-3a,4,9,10-tetrahydro-2,9,10a-triaza-cyclopenta[b]fluorene-1,3-dione] | ≥ 3.16 µM | ≤ 0.0398 µM
CCN(CCO)CCN1C(=O)N2[C@H](c3cccc(O)c3)c3[nH]c4ccc(OC)cc4c3C[C@@]2(C)C1=O (racemic) [Example 78, (3aSR,10RS)-2-[2-[Ethyl-(2-hydroxy-ethyl)-amino]-ethyl}-10-(3-hydroxy-phenyl)-6-methoxy-3a-methyl-3a,4,9,10-tetrahydro-2,9,10a-triaza-cyclopenta[b]fluorene-1,3-dione] | ≥ 3.16 µM | ≤ 0.0398 µM
C#CCN(C)CCN1C(=O)N2[C@H](c3cccc(O)c3)c3[nH]c4ccc(Cl)cc4c3C[C@@]2(C)C1=O (racemic) [Example 116, (3aSR,10RS)-6-Chloro-10-(3-hydroxy-phenyl)-3a-methyl-2-[2-(methyl-prop-2-ynyl-amino)-ethyl]-3a,4,9,10-tetrahydro-2,9,10a-triaza-cyclopenta[b]fluorene-1,3-dione] | ≥ 0.316 µM | 0.0398 to 0.251 µM
CCN(CCO)CCCN1C(=O)N2[C@H](c3cccc(O)c3)c3[nH]c4ccc(OC)cc4c3C[C@@]2(C)C1=O (racemic) [Example 89, (3aSR,10RS)-2-{3-[Ethyl-(2-hydroxy-ethyl)-amino]-propyl}-10-(3-hydroxy-phenyl)-6-methoxy-3a-methyl-3a,4,9,10-tetrahydro-2,9,10a-triaza-cyclopenta[b]fluorene-1,3-dione] | ≥ 3.16 µM | ≤ 0.0398 µM
CCN(CC)CCN1C(=O)N2[C@H](c3cccc(O)c3)c3[nH]c4ccc(Cl)cc4c3C[C@@]2(C)C1=O (racemic) [Example 110, (3aSR,10RS)-6-Chloro-2-(2-diethylamino-ethyl)-10-(3-hydroxy-phenyl)-3a-methyl-3a,4,9,10-tetrahydro-2,9,10a-triaza-cyclopenta[b]fluorene-1,3-dione] | ≥ 0.316 µM | ≤ 0.0398 µM
COCCNCCN1C(=O)N2[C@H](c3cccc(O)c3)c3[nH]c4ccc(OC)cc4c3C[C@@]2(C)C1=O (racemic) [Example 83, (3aSR,10RS)-10-(3-Hydroxy-phenyl)-6-methoxy-2-[2-(2-methoxy-ethylamino)-ethyl]-3a-methyl-3a,4,9,10-tetrahydro-2,9,10a-triaza-cyclopenta[b]fluorene-1,3-dione] | ≥ 3.16 µM | ≤ 0.0398 µM
